One data set relates to BMP responsive sequence. Briefly: Luciferase reporter after siRNA knockdown of ACVR1 or BMPR1A in FOP patient derived cells treated with activin A. It counts as cell-based, human. Conditions: activin A 16 hours. The procedure:
Patient iPS cell line-derived mesenchymal stem cell-like cells were prepared by the same method as Example 1. The cells were transfected with a Firefly luciferase reporter plasmid having the BMP responsive sequence in the promoter region, a plasmid having a nucleic acid sequence coding for Renilla luciferase downstream of the CMV promoter, as an internal standard, and siRNA for ACVR1 or BMPR1A, using a Lipofectamine 2000 (product of Invitrogen Corp.), for knockdown of ACVR1 or BMPR1A expression. BMPR1A is a type I receptor that transmits the BMP signal. The siRNA used for knockdown was siRNA purchased from Applied Biosystems, having two different sequences for each gene (Catalog Nos. ACVR1:S975, S976, BMPR1A:S281, S282). The cells were also cultured for 16 hours with addition of activin A in the same manner as Example 1. The cells were then solubilized and the luciferase activity was measured. In FIG. 5, the bar graph indicates the mean values for each treated group, and the error bars represent S.D. Here, the sequences of the siRNA used for the test were S975: sense strand: 5′-GGAUCAUUCGUGUACAUCAtt-3′ (SEQ ID NO: 37), antisense strand: 5′-UGAUGUACACGAAUGAUCCaa-3′ (SEQ ID NO: 38), S976: sense strand: 5′-GUUGCUCUCCGAAAAUUUAtt-3′ (SEQ ID NO: 39), antisense strand: 5′-UAAAUUUUCGGAGAGCAACtc-3′ (SEQ ID NO: 40), S281: sense strand: 5′-GGCCGAUAUGGAGAAGUAUtt-3′ (SEQ ID NO: 41), antisense strand: 5′-AUACUUCUCCAUAUCGGCCtt-3′ (SEQ ID NO: 42), S282: sense strand: 5′-GAAUCUGGAUAGUAUGCUUtt-3′ (SEQ ID NO: 43), antisense strand: 5′-AAGCAUACUAUCCAGAUUCtg-3′ (SEQ ID NO: 44). The sequence portions printed in lowercase represent the overhang portions, as portions where the ribose backbone has been replaced with a deoxyribose backbone.

The next data set addresses T1, wild type ACVR1 (Homo sapiens, UniProt Q04771).
T1 construct: an iPS cell line with the ACVR1 gene mutation repaired to the normal type (wild type) by gene repair by a BAC knockin vector; endogenous in cells; host or cells: mesenchymal stem cell-like cells differentiated from the gene-corrected iPS cell clone
T1 sequence (Q04771 21-509): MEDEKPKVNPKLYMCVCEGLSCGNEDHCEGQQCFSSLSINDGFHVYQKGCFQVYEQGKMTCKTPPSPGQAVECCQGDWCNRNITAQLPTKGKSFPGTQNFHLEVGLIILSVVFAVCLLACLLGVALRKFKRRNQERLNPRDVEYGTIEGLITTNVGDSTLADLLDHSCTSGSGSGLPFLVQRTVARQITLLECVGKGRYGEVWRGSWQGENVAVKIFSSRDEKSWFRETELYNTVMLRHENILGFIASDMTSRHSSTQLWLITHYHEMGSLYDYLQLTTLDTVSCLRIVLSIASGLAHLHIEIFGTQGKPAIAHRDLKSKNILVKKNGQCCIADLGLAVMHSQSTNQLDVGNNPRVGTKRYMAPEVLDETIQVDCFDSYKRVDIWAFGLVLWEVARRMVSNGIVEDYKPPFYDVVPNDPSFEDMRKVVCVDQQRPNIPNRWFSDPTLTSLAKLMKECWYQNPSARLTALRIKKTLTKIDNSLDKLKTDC
Nature of the data set: Luciferase reporter (BMP responsive sequence) transcription activity in gene-corrected clone derived cells. It counts as cell-based. Conditions: ligand 1, 10, 100 ng/mL, 16 hours. From the text:
(§1) Following the method of Yamanaka et al. (Cell, 2007, 131 (5), […]), FOP patient-derived iPS cells (hereunder also referred to as “patient-derived iPS cell line”) were established. The patient cells were confirmed to be cells having a typical FOP-associated mutation in the ACVR1 gene. The mutation is a substitution of the 206th arginine residue of the amino acid sequence of ACVR1 (the amino acid sequence listed as SEQ ID NO: 10) with a histidine residue. Next, for use as a control, an iPS cell line with the ACVR1 gene mutation repaired to the normal type (wild type) by gene repair by a BAC knockin vector (hereunder also referred to as “gene-corrected iPS cell clone” or “gene-rescued iPS cell clone”) was established.
(§2) The patient-derived iPS cell line and gene-corrected iPS cell line were cultured on the matrix of a Matrigel coated plate (trade name: Growth Factor Reduced (GFR)BD Matrigel® by Becton & Dickinson), using mTeSR1 (Stem Cell Technologies) for 2 days under feeder-free conditions. Next, using serum-free medium [F12 Nutrient Mixture (product of Gibco)/Iscove's Modified Dulbecco's Medium (IMDM) (product of Sigma-Aldrich Japan, KK.)/0.5% bovine serum albumin (BSA) (product of Sigma-Aldrich Japan, KK.)/1% Chemically Defined Lipid (CD-Lipid) (product of Gibco, trade name: Chemically Defined Lipid Concentrate)/15 μg/mL apotransferrin (product of Sigma-Aldrich Japan, KK., trade name: apo-Transferrin human)/7 μg/mL insulin (product of Wako Pure Chemical Industries, Ltd., trade name: Insulin, Human, recombinant)/0.45 mM 1-Thioglycerol (product of Sigma-Aldrich Japan, KK.)] with addition of 10 μM SB-431542 (product of Selleck Chemicals) and 1 μM CHIR99021 (product of Wako Pure Chemical Industries, Ltd.), the patient-derived iPS cell line and gene-corrected iPS cell line were further cultured for 1 week under feeder-free conditions for differentiation to neural crest cells. […]
(§3) After mixing Firefly luciferase reporter plasmid having the BMP responsive sequence in the promoter region (J. Biol. Chem., 2002, 277(7), 4883-4891) and a plasmid having a nucleic acid sequence coding for Renilla luciferase downstream from CMV promoter, as an internal standard (product of Promega Corp., trade name: phRL-CMV Vector), FuGene® HD (Promega Corp.) was used for transfection into the mesenchymal stem cell-like cells. […] Next, the luciferase activity was measured according to the protocol provided with a Dual-Glo Luciferase Assay System (product of Promega Corp.). The luminescence was detected using an EnVision Multilabel Counter (product of Perkin-Elmer). […]

Data set [1] addresses T2, FOP patient-derived ACVR1 (Homo sapiens, UniProt Q04771, R206H).
T2 construct: The patient cells were confirmed to be cells having a typical FOP-associated mutation in the ACVR1 gene; endogenous in cells; host or cells: mesenchymal stem cell-like cells differentiated from an FOP patient-derived iPS cell line
T2 sequence (Q04771 21-509 R206H): T1 sequence (Q04771 21-509) with R186H
Nature of the data set: Luciferase reporter (BMP responsive sequence) transcription activity via ACVR1 in FOP patient derived cells. It counts as cell-based. Conditions: ligand 1, 10, 100 ng/mL, 16 hours, significant at 10 and 100 ng/mL vs untreated group.
Source text: as §1, §2, §3
In general terms: In a reporter assay the amount or activity of a reporter protein is the signal.

Data set [2] has as its system FOP patient derived cells. Briefly: Evaluation of binding inhibitors: chondrocyte differentiation of FOP patient derived cells in copresence of human activin A. Type of data set: cell-based. Conditions: copresence of 30 ng/mL human activin A, 6 days; vs activin-treated group. The procedure:
Patient iPS cell line-derived mesenchymal stem cell-like cells were prepared by the same method as Example 1. The mesenchymal stem cell-like cells were cultured for 6 days by the same method as Example 3, for differentiation to chondrocytes. The effect of each factor on differentiation to chondrocytes was examined, with neutralizing antibody for human activin A (product of R&D Systems, Inc., trade name: Human/Mouse/Rat Activin A βA subunit Antibody), follistatin (product of R&D Systems, Inc., trade name: Recombinant Human Follistatin 315 as 30-344), follistatin-like 3 (product of R&D Systems, Inc., trade name: Recombinant Human Follistatin-related Gene Protein/FLRG), ACVR2A-Fc chimeric protein (product of R&D Systems, Inc., trade name: Recombinant Human Activin RIIA Fc Chimera (CHO)), or ACVR2B-Fc chimeric protein (product of R&D Systems, Inc., trade name: Recombinant Human Activin RIIB Fc Chimera), in the copresence of 30 ng/mL of human activin A. The ACVR2A-Fc chimeric protein is a fusion protein in which a polypeptide fragment having the amino acid sequence of positions 20 to 134 of the amino acid sequence listed as SEQ ID NO: 12, and the Fc region of the human-derived antibody, are bonded via a linker sequence (Ile-Glu-Gly-Arg-Met-Asp). The ACVR2B-Fc chimeric protein is a fusion protein in which a polypeptide fragment having the amino acid sequence of positions 19 to 134 of the amino acid sequence listed as SEQ ID NO: 14, and the Fc region of the human-derived antibody, are bonded via a linker sequence (Ile-Glu-Gly-Arg-Met-Asp). The extent of differentiation to chondrocytes was evaluated by Alcian blue staining and sulfated glycosaminoglycan assay, similar to Example 3. In FIG. 6(B), the bar graph indicates the mean values for each treated group, and the error bars represent S.D.

Substitutions are numbered along the chain they refer to. d = 2'-deoxy (DNA); r = 2'-OH (RNA)

“ACVR1-2: siRNA for ACVR1 (Applied Biosystems S976), SEQ ID NO: 39/40 (chain 1 GUUGCUCUCCGAAAAUUUATT; chain 2 UAAAUUUUCGGAGAGCAACTC; sugars from the 5' end r19 d2, backbone not given here)”: the “transcription activation of the BMP responsive sequence by human activin A after siRNA knockdown” value (“transcription activation” for short) in the data set with BMP responsive sequence is given as “disappeared”. As to “BMPR1A-1: siRNA for BMPR1A (Applied Biosystems S281), SEQ ID NO: 41/42 (chain 1 GGCCGAUAUGGAGAAGUAUTT; chain 2 AUACUUCUCCAUAUCGGCCTT; sugars from the 5' end r19 d2, backbone not given here)”, the “transcription activation” value in the data set on BMP responsive sequence was “not affected”.

On to “BMPR1A-2: siRNA for BMPR1A (Applied Biosystems S282), SEQ ID NO: 43/44 (chain 1 GAAUCUGGAUAGUAUGCUUTT; chain 2 AAGCAUACUAUCCAGAUUCTG; sugars from the 5' end r19 d2, backbone not given here)”, for which, in the data set with BMP responsive sequence, the “transcription activation” value was “not affected”. For the substance “human activin AB: Recombinant Human Activin AB (R&D Systems); heterodimer of βA chain and βB chain”, the “transcription activity via ACVR1 (firefly/Renilla luciferase activity, BMP responsive sequence)” value with wild type ACVR1 is “not seen”; in data set [1], “significantly increased”. As to “ACVR2A-Fc chimeric protein: Fusion of positions 20 to 134 of SEQ ID NO: 12 with human antibody Fc region via linker Ile-Glu-Gly-Arg-Met-Asp”, the “differentiation of FOP patient derived cells to chondrocytes (Alcian blue staining, sulfated glycosaminoglycan assay)” value in data set [2] was “inhibited”. On to “human activin B: Recombinant Human Activin B (R&D Systems); homodimer of βB chains”, for which the “transcription activity via ACVR1 (firefly/Renilla luciferase activity, BMP responsive sequence)” value is listed as “not seen” with wild type ACVR1 and “significantly increased” in data set [1]. For the substance “ACVR1-1: siRNA for ACVR1 (Applied Biosystems S975), SEQ ID NO: 37/38 (chain 1 GGAUCAUUCGUGUACAUCATT; chain 2 UGAUGUACACGAAUGAUCCAA; sugars from the 5' end r19 d2, backbone not given here)”, the “transcription activation” value in the data set on BMP responsive sequence is on record as “disappeared”.
